Data: patent US10695321B2, “Use of glycopyrrolate for treating tachycardia” (Heptares Therapeutics Limited, priority 2011, dated 2020)

Test system: subjects with COPD
Experiment: Phase IIa placebo-controlled crossover dose-ranging study, heart rate (vital signs) after single inhaled dose
Type: in vivo, human
Details: for Adjusted Mean for Average Change in Heart Rate from Test day Baseline: ANCOVA
Description: The study was a Phase IIa, multi-centre, randomised, double-blind, placebo-controlled, crossover, dose-ranging study using four dose levels of glycopyrronium bromide in subjects with COPD. A total of 40 subjects were required to complete the study.
Subjects were randomised to receive a single inhaled dose of 20, 125, 250 and 400 μg of glycopyrronium bromide in ascending order, with a placebo dose randomised into the sequence over 5 study visits. Subjects were randomised to receive treatment on Study Day 1 prior to dosing. All doses, including placebo, were administered using the Miat Monohaler.
The Treatment period then consisted of five study visits (separated by a 5-14-day wash-out period), during which subjects were dosed with a single inhaled dose of glycopyrronium bromide using a Miat Monohaler, in ascending order (20, 125, 250 or 400 μg). A placebo was randomly administered (using a Miat Monohaler) at one of the study visits; subsequent visits continued with the next highest dose of glycopyrronium bromide to that which was administered prior to the placebo.
All subjects were scheduled to be dosed between 08:00 and 10:00 am. For individual subjects, dosing was at the same time of day (±30 minutes). At each dosing visit, subjects received a single dose of glycopyrronium bromide or placebo administered via Miat Monohaler. Each different dose (20, 125, 250 or 400 μg) was contained in one capsule. An appropriate number of Miat Monohalers to conduct the study was also supplied to the site. A new Miat Monohaler was used to administer each dose at each visit.
copyrronium bromide was presented in size 3, white opaque, hard, gelatin capsules packaged in aluminium pouches. The capsules were presented in four dose strengths containing 20, 125, 250, or 400 μg glycopyrronium bromide. In addition to glycopyrronium bromide, excipient present in the capsule formulation consisted of the PowderHale^TM formulation of lactose and magnesium stearate.
All vital signs were measured on each study day, including heart rate (with the subject semi-supine for 5 minutes prior to measurement); blood pressure; respiratory rate and temperature were measured at each visit and before receiving study medication (pre-treatment), if applicable. Blood pressure and heart rate were also measured at 45, 90 minutes and 5, 10, 20 and 30 hours post-treatment on study days.
The statistical analyses were to be reported using summary tables and data listings. Statistical tests for the evaluation were to be performed at the 0.05 significance level using a two-sided test.
All analyses and tabulations were to be performed using SASS Version 6.12 on a PC platform. Continuous variables were to be summarised with sample size (n), mean, standard deviation (SD), minimum, median, and maximum. […] The mean was to have one extra decimal place and the standard deviation was to have two extra decimal places. Categorical variables were to be summarised with number and percentage of subjects.

[1] = 250 μg single inhaled dose, 90 mins post-dose
[2] = 250 μg single inhaled dose, 5 hrs post-dose
[3] = 250 μg single inhaled dose, 10 hrs post-dose
[4] = 250 μg single inhaled dose, 20 hrs post-dose
[5] = 250 μg single inhaled dose, 30 hrs post-dose
[6] = 250 μg single inhaled dose, pre-dose to 45 mins post-dose
[7] = 250 μg single inhaled dose, pre-dose to 90 mins post-dose
[8] = 250 μg single inhaled dose, pre-dose to 5 hours post-dose
[9] = 250 μg single inhaled dose, pre-dose to 10 hours post-dose
[10] = 250 μg single inhaled dose, pre-dose to 20 hours post-dose
[11] = 250 μg single inhaled dose, pre-dose to 30 hours post-dose
[12] = 400 μg single inhaled dose, 45 mins post-dose
[13] = 400 μg single inhaled dose, 90 mins post-dose
[14] = 400 μg single inhaled dose, 5 hrs post-dose
[15] = 400 μg single inhaled dose, 10 hrs post-dose
[16] = 400 μg single inhaled dose, 20 hrs post-dose
[17] = 400 μg single inhaled dose, 30 hrs post-dose
[18] = 400 μg single inhaled dose, pre-dose to 45 mins post-dose
[19] = 400 μg single inhaled dose, pre-dose to 90 mins post-dose
[20] = 400 μg single inhaled dose, pre-dose to 10 hours post-dose
[21] = 400 μg single inhaled dose, pre-dose to 30 hours post-dose

## C[N+]1(C)CCC(OC(=O)C(O)(c2ccccc2)C2CCCC2)C1 (stereo not drawn) [glycopyrronium bromide]
250 μg single inhaled dose, 45 mins post-dose
  Heart Rate Median: 64.0 bpm
[1]
  Heart Rate Mean: 68.2 bpm
  Heart Rate Median: 69.0 bpm
[2]
  Heart Rate Mean: 68.4 bpm
  Heart Rate Median: 68.5 bpm
[3]
  Heart Rate Mean: 66.3 bpm
  Heart Rate Median: 65.0 bpm
[4]
  Heart Rate Mean: 66.6 bpm
  Heart Rate Median: 65.0 bpm
[5]
  Heart Rate Mean: 70.7 bpm
  Heart Rate Median: 71.5 bpm
[6]
  Heart Rate Change from Test day Baseline, Mean: −4.6 bpm
  Heart Rate Change from Test day Baseline, Median: −4.5 bpm
[7]
  Heart Rate Change from Test day Baseline, Mean: −1.7 bpm
  Heart Rate Change from Test day Baseline, Median: −1.0 bpm
[8]
  Heart Rate Change from Test day Baseline, Mean: −1.4 bpm
  Heart Rate Change from Test day Baseline, Median: 0.0 bpm
[9]
  Heart Rate Change from Test day Baseline, Mean: −3.6 bpm
  Heart Rate Change from Test day Baseline, Median: −4.0 bpm
[10]
  Heart Rate Change from Test day Baseline, Mean: −3.4 bpm
  Heart Rate Change from Test day Baseline, Median: −4.0 bpm
[11]
  Heart Rate Change from Test day Baseline, Mean: 1.0 bpm
  Heart Rate Change from Test day Baseline, Median: 2.5 bpm
250 μg, to 45 mins post-dose
  Adjusted Mean for Average Change in Heart Rate from Test day Baseline: −3.693 bpm
250 μg, to 45 mins post-dose, p-value 0.324
  Dose v Placebo Difference, adjusted mean change in Heart Rate from Test day Baseline: −1.364 bpm
250 μg, to 90 mins post-dose
  Adjusted Mean for Average Change in Heart Rate from Test day Baseline: −0.763 bpm
250 μg, to 90 mins post-dose, p-value 0.203
  Dose v Placebo Difference, adjusted mean change in Heart Rate from Test day Baseline: −2.035 bpm
250 μg, to 5 hours post-dose
  Adjusted Mean for Average Change in Heart Rate from Test day Baseline: −0.586 bpm
250 μg, to 5 hours post-dose, p-value 0.072
  Dose v Placebo Difference, adjusted mean change in Heart Rate from Test day Baseline: −2.633 bpm
250 μg, to 10 hours post-dose
  Adjusted Mean for Average Change in Heart Rate from Test day Baseline: −4.657 bpm
250 μg, to 10 hours post-dose, p-value 0.078
  Dose v Placebo Difference, adjusted mean change in Heart Rate from Test day Baseline: −2.832 bpm
250 μg, to 20 hours post-dose
  Adjusted Mean for Average Change in Heart Rate from Test day Baseline: −1.858 bpm
250 μg, to 20 hours post-dose, p-value 0.773
  Dose v Placebo Difference, adjusted mean change in Heart Rate from Test day Baseline: −0.390 bpm
250 μg, to 30 hours post-dose
  Adjusted Mean for Average Change in Heart Rate from Test day Baseline: 1.436 bpm
250 μg, to 30 hours post-dose, p-value 0.581
  Dose v Placebo Difference, adjusted mean change in Heart Rate from Test day Baseline: 0.817 bpm
400 μg dose, 45 minute to 10 hour timepoints inclusive
  Statistical significance (p) of heart rate change relative to placebo: < 0.05
[12]
  Heart Rate Mean: 65.4 bpm
  Heart Rate Median: 65.0 bpm
[13]
  Heart Rate Mean: 67.1 bpm
  Heart Rate Median: 67.5 bpm
[14]
  Heart Rate Mean: 69.7 bpm
  Heart Rate Median: 69.0 bpm
[15]
  Heart Rate Mean: 65.7 bpm
  Heart Rate Median: 65.5 bpm
[16]
  Heart Rate Mean: 66.7 bpm
  Heart Rate Median: 66.0 bpm
[17]
  Heart Rate Mean: 70.9 bpm
  Heart Rate Median: 70.0 bpm
[18]
  Heart Rate Change from Test day Baseline, Mean: −7.4 bpm
  Heart Rate Change from Test day Baseline, Median: −6.5 bpm
[19]
  Heart Rate Change from Test day Baseline, Mean: −5.7 bpm
  Heart Rate Change from Test day Baseline, Median: −4.5 bpm
400 μg single inhaled dose, pre-dose to 5 hours post-dose
  Heart Rate Change from Test day Baseline, Mean: −3.1 bpm
[20]
  Heart Rate Change from Test day Baseline, Mean: −6.4 bpm
  Heart Rate Change from Test day Baseline, Median: −5.5 bpm
400 μg single inhaled dose, pre-dose to 20 hours post-dose
  Heart Rate Change from Test day Baseline, Mean: −5.6 bpm
[21]
  Heart Rate Change from Test day Baseline, Mean: −1.4 bpm
  Heart Rate Change from Test day Baseline, Median: 0.0 bpm
400 μg, to 45 mins post-dose
  Adjusted Mean for Average Change in Heart Rate from Test day Baseline: −7.052 bpm
400 μg, to 45 mins post-dose, p-value 0.005
  Dose v Placebo Difference, adjusted mean change in Heart Rate from Test day Baseline: −4.723 bpm
400 μg, to 90 mins post-dose
  Adjusted Mean for Average Change in Heart Rate from Test day Baseline: −4.315 bpm
400 μg, to 90 mins post-dose, p-value 0.004
  Dose v Placebo Difference, adjusted mean change in Heart Rate from Test day Baseline: −5.587 bpm
400 μg, to 5 hours post-dose
  Adjusted Mean for Average Change in Heart Rate from Test day Baseline: −3.455 bpm
400 μg, to 5 hours post-dose, p-value 0.002
  Dose v Placebo Difference, adjusted mean change in Heart Rate from Test day Baseline: −5.502 bpm
400 μg, to 10 hours post-dose
  Adjusted Mean for Average Change in Heart Rate from Test day Baseline: −6.919 bpm
400 μg, to 10 hours post-dose, p-value 0.008
  Dose v Placebo Difference, adjusted mean change in Heart Rate from Test day Baseline: −5.095 bpm
400 μg, to 20 hours post-dose
  Adjusted Mean for Average Change in Heart Rate from Test day Baseline: −2.371 bpm
400 μg, to 20 hours post-dose, p-value 0.583
  Dose v Placebo Difference, adjusted mean change in Heart Rate from Test day Baseline: −0.903 bpm
400 μg, to 30 hours post-dose
  Adjusted Mean for Average Change in Heart Rate from Test day Baseline: 0.475 bpm
400 μg, to 30 hours post-dose, p-value 0.935
  Dose v Placebo Difference, adjusted mean change in Heart Rate from Test day Baseline: −0.143 bpm
20-400 μg inhaled, up to 5 hours post-dose
  Mean heart rate from Test Day Baseline, dose relation: dose dependent decrease
Any of the inhaled doses, up to 30 hours
  Subsequent tachycardic effect: not evident
